Experimental findings from PubChem BioAssay (NCI) are described below.

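Step 1: Grow cells in 96-well plates. Step 2: Expose to compound for 48 hours at 5 concentrations. Step 3: Interpolate endpoints linearly; if unreached, use highest concentration. TGI marks complete inhibition of growth.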

The test system of one assay is MCF7 breast. The assay is described as follows: inhibition of tumour cell growth, NCI panel, 48 h.
`CC1(C)CCCC2OC2CCC(C)(C)C1=O` (stereo unspecified) yielded a TGI above 100 µM.
`COc1ccc2c(c1)/C(=C\c1c(Cl)nc3sc(C)cn13)C(=O)N2` registered a TGI of 14.2 µM.
Same read-out and setting: then `O=C(/C=C/c1ccc2c(c1)OCO2)CC(=O)C(=O)c1c[nH]c2ccccc12`, with above 100 µM; and `O=c1[nH]c(=O)n(C2OC(CO)C(O)C2O)c2nc(-c3ccc(-c4ccccc4)cc3)cnc12` (stereo unspecified), with above 100 µM.
Turning to `CC1=NN(c2cccc(Cl)c2)C2(SCC(=O)N2c2nc3ccccc3s2)/C1=C\c1ccccc1O` (stereo unspecified), the TGI was above 100 µM.
On the same count and under the same terms, in the case of `CCCCCCOc1ccc(C(=O)NOC)cc1` it was above 100 µM.
In turn, `Cc1c(S(=O)(=O)c2ccccc2)c(N)n(CCN(C)C)c1C` came in with a TGI above 100 µM.
`N=C(N)SCc1ccc2c(c1)Sc1ccccc1O2` displayed a TGI of 13.5 µM.
As for `CC(=O)Nc1nc(C#N)[nH]c1C#N`, the TGI is above 100 µM.
Same read-out and setting: then `CS(=O)c1ncc2c(n1)-c1ccccc1OC2` (stereo unspecified), with above 100 µM; and `CCOC(=O)Cn1c(=O)c2nc(SC)sc2n(-c2ccccc2)c1=O`, with above 100 µM; and `COc1ccc(-c2nc(SCC(=O)N/N=C/c3ccc(N(C)C)cc3)[nH]c2-c2ccc(OC)cc2)cc1`, with above 100 µM.
`CC1=C[C@@H]2Cc3nc4cc(Cl)ccc4c(N)c3[C@H](C1)C2` had a TGI of 23.3 µM.
As for `c1c[nH]c(-c2ccc(-c3ccc[nH]3)c3nsnc23)c1`, the TGI was above 100 µM.
The same measure, in the same setting: in the case of `CS(=O)(=O)OCC(CCl)(CCl)CCl` it was above 100 µM; in that of `CSC(=S)N(C)C`, above 100 µM; in that of `CCN(CC)CCn1c(=O)c2cccnc2n2c3c(=O)n(C)c(=O)n(C)c3nc12`, above 100 µM.
Same read-out and setting: then `O=c1[nH]c(Nc2nc3ccccc3[nH]2)nc(O)c1-c1ccccc1`, with above 100 µM.
Still for that read-out and setting: in the case of `CCOC(=O)c1ccc(NCC#CCN2CCOCC2)cc1` it was above 100 µM.
For `CC1(C)C2CCC1(C)[C@H](n1c(=O)n([C@@H]3CC4CCC3(C)C4(C)C)c(=O)n([C@@H]3CC4CCC3(C)C4(C)C)c1=O)C2`, the TGI was above 100 µM.
Still for that read-out and setting: in the case of `COC(=O)C1CCC(=O)N1C(c1ccc(OC)cc1)c1ccc2c(c1)OCO2` (stereo unspecified) it was above 100 µM.

The test system of a further assay is HCT-116 colon. Put plainly: inhibition of tumour cell growth, NCI panel, 48 h.
`CC1(C)CCCC2OC2CCC(C)(C)C1=O` (stereo unspecified) showed a TGI above 100 µM.
The same measure, in the same setting: in the case of `COc1ccc2c(c1)/C(=C\c1c(Cl)nc3sc(C)cn13)C(=O)N2` it was 14.1 µM.
With `O=C(/C=C/c1ccc2c(c1)OCO2)CC(=O)C(=O)c1c[nH]c2ccccc12`, the TGI is above 100 µM.
The same measure, in the same setting: in the case of `O=c1[nH]c(=O)n(C2OC(CO)C(O)C2O)c2nc(-c3ccc(-c4ccccc4)cc3)cnc12` (stereo unspecified) it was above 100 µM.
The same measure, in the same setting: in the case of `CC1=NN(c2cccc(Cl)c2)C2(SCC(=O)N2c2nc3ccccc3s2)/C1=C\c1ccccc1O` (stereo unspecified) it was 28.2 µM.
Turning to `CCCCCCOc1ccc(C(=O)NOC)cc1`, the TGI is above 100 µM.
Same read-out and setting: then `Cc1c(S(=O)(=O)c2ccccc2)c(N)n(CCN(C)C)c1C`, with above 100 µM; and `N=C(N)SCc1ccc2c(c1)Sc1ccccc1O2`, with 22.3 µM.
The same measure, in the same setting: in the case of `CC(=O)Nc1nc(C#N)[nH]c1C#N` it was above 100 µM; in that of `CS(=O)c1ncc2c(n1)-c1ccccc1OC2` (stereo unspecified), above 100 µM.
The same measure, in the same setting: in the case of `CCOC(=O)Cn1c(=O)c2nc(SC)sc2n(-c2ccccc2)c1=O` it was above 100 µM; in that of `COc1ccc(-c2nc(SCC(=O)N/N=C/c3ccc(N(C)C)cc3)[nH]c2-c2ccc(OC)cc2)cc1`, above 100 µM; in that of `CC1=C[C@@H]2Cc3nc4cc(Cl)ccc4c(N)c3[C@H](C1)C2`, 14.5 µM.
Compound `c1c[nH]c(-c2ccc(-c3ccc[nH]3)c3nsnc23)c1` yielded a TGI above 59.8 µM.
Same read-out and setting: in the case of `CS(=O)(=O)OCC(CCl)(CCl)CCl` it was above 100 µM; in that of `CSC(=S)N(C)C`, above 100 µM; in that of `CCN(CC)CCn1c(=O)c2cccnc2n2c3c(=O)n(C)c(=O)n(C)c3nc12`, above 100 µM.
The compound `O=c1[nH]c(Nc2nc3ccccc3[nH]2)nc(O)c1-c1ccccc1` showed a TGI above 100 µM.
On the same count and under the same terms, then `CCOC(=O)c1ccc(NCC#CCN2CCOCC2)cc1`, with above 100 µM; and `CC1(C)C2CCC1(C)[C@H](n1c(=O)n([C@@H]3CC4CCC3(C)C4(C)C)c(=O)n([C@@H]3CC4CCC3(C)C4(C)C)c1=O)C2`, with above 100 µM; and `COC(=O)C1CCC(=O)N1C(c1ccc(OC)cc1)c1ccc2c(c1)OCO2` (stereo unspecified), with above 100 µM.

Another assay relates to RXF 393 renal. The assay is described as follows: inhibition of tumour cell growth, NCI panel, 48 h.
Compound `CC1(C)CCCC2OC2CCC(C)(C)C1=O` (stereo unspecified) returned a TGI above 100 µM.
Still for that read-out and setting: in the case of `COc1ccc2c(c1)/C(=C\c1c(Cl)nc3sc(C)cn13)C(=O)N2` it was 21.1 µM; in that of `O=C(/C=C/c1ccc2c(c1)OCO2)CC(=O)C(=O)c1c[nH]c2ccccc12`, 96.6 µM.
Still for that read-out and setting: then `O=c1[nH]c(=O)n(C2OC(CO)C(O)C2O)c2nc(-c3ccc(-c4ccccc4)cc3)cnc12` (stereo unspecified), with above 100 µM; and `CC1=NN(c2cccc(Cl)c2)C2(SCC(=O)N2c2nc3ccccc3s2)/C1=C\c1ccccc1O` (stereo unspecified), with 32.8 µM; and `CCCCCCOc1ccc(C(=O)NOC)cc1`, with above 100 µM.
Compound `Cc1c(S(=O)(=O)c2ccccc2)c(N)n(CCN(C)C)c1C` showed a TGI above 100 µM.
The compound `N=C(N)SCc1ccc2c(c1)Sc1ccccc1O2` came in with a TGI of 14 µM.
On the same count and under the same terms, then `CC(=O)Nc1nc(C#N)[nH]c1C#N`, with above 100 µM; and `CS(=O)c1ncc2c(n1)-c1ccccc1OC2` (stereo unspecified), with above 100 µM; and `CCOC(=O)Cn1c(=O)c2nc(SC)sc2n(-c2ccccc2)c1=O`, with above 100 µM.
Same read-out and setting: then `COc1ccc(-c2nc(SCC(=O)N/N=C/c3ccc(N(C)C)cc3)[nH]c2-c2ccc(OC)cc2)cc1`, with above 100 µM; and `CC1=C[C@@H]2Cc3nc4cc(Cl)ccc4c(N)c3[C@H](C1)C2`, with 18.3 µM; and `c1c[nH]c(-c2ccc(-c3ccc[nH]3)c3nsnc23)c1`, with above 66.8 µM.
Same read-out and setting: in the case of `CS(=O)(=O)OCC(CCl)(CCl)CCl` it was above 100 µM; in that of `CSC(=S)N(C)C`, above 100 µM.
`CCN(CC)CCn1c(=O)c2cccnc2n2c3c(=O)n(C)c(=O)n(C)c3nc12` registered a TGI above 100 µM.
On the same count and under the same terms, then `O=c1[nH]c(Nc2nc3ccccc3[nH]2)nc(O)c1-c1ccccc1`, with above 100 µM.
Same read-out and setting: in the case of `CCOC(=O)c1ccc(NCC#CCN2CCOCC2)cc1` it was above 100 µM.
The same measure, in the same setting: in the case of `CC1(C)C2CCC1(C)[C@H](n1c(=O)n([C@@H]3CC4CCC3(C)C4(C)C)c(=O)n([C@@H]3CC4CCC3(C)C4(C)C)c1=O)C2` it was 55.8 µM.

For the next assay, the system named is EKVX NSCLC. Put plainly: inhibition of tumour cell growth, NCI panel, 48 h.
The compound `CC1(C)CCCC2OC2CCC(C)(C)C1=O` (stereo unspecified) displayed a TGI above 100 µM.
For `COc1ccc2c(c1)/C(=C\c1c(Cl)nc3sc(C)cn13)C(=O)N2`, the TGI is 21.2 µM.
In the case of `O=C(/C=C/c1ccc2c(c1)OCO2)CC(=O)C(=O)c1c[nH]c2ccccc12`, the TGI is above 100 µM.
On the same count and under the same terms, then `O=c1[nH]c(=O)n(C2OC(CO)C(O)C2O)c2nc(-c3ccc(-c4ccccc4)cc3)cnc12` (stereo unspecified), with above 100 µM; and `CC1=NN(c2cccc(Cl)c2)C2(SCC(=O)N2c2nc3ccccc3s2)/C1=C\c1ccccc1O` (stereo unspecified), with above 100 µM.
Turning to `CCCCCCOc1ccc(C(=O)NOC)cc1`, the TGI is above 100 µM.
Same read-out and setting: in the case of `Cc1c(S(=O)(=O)c2ccccc2)c(N)n(CCN(C)C)c1C` it was above 100 µM; in that of `N=C(N)SCc1ccc2c(c1)Sc1ccccc1O2`, 27 µM.
The same measure, in the same setting: then `CC(=O)Nc1nc(C#N)[nH]c1C#N`, with above 100 µM; and `CS(=O)c1ncc2c(n1)-c1ccccc1OC2` (stereo unspecified), with above 100 µM; and `CCOC(=O)Cn1c(=O)c2nc(SC)sc2n(-c2ccccc2)c1=O`, with above 100 µM.
Same read-out and setting: then `COc1ccc(-c2nc(SCC(=O)N/N=C/c3ccc(N(C)C)cc3)[nH]c2-c2ccc(OC)cc2)cc1`, with above 100 µM; and `CC1=C[C@@H]2Cc3nc4cc(Cl)ccc4c(N)c3[C@H](C1)C2`, with 13.3 µM.
`c1c[nH]c(-c2ccc(-c3ccc[nH]3)c3nsnc23)c1`: the TGI was above 58.4 µM.
`CSC(=S)N(C)C` had a TGI above 100 µM.
Same read-out and setting: then `CCN(CC)CCn1c(=O)c2cccnc2n2c3c(=O)n(C)c(=O)n(C)c3nc12`, with above 100 µM; and `CCOC(=O)c1ccc(NCC#CCN2CCOCC2)cc1`, with above 100 µM.
On the same count and under the same terms, in the case of `CC1(C)C2CCC1(C)[C@H](n1c(=O)n([C@@H]3CC4CCC3(C)C4(C)C)c(=O)n([C@@H]3CC4CCC3(C)C4(C)C)c1=O)C2` it was 67.1 µM; in that of `COC(=O)C1CCC(=O)N1C(c1ccc(OC)cc1)c1ccc2c(c1)OCO2` (stereo unspecified), above 100 µM.

The subject of the next assay is UACC-257 melanoma. Put plainly: inhibition of tumour cell growth, NCI panel, 48 h.
On to `CC1(C)CCCC2OC2CCC(C)(C)C1=O` (stereo unspecified), for which the TGI is above 100 µM.
As to `COc1ccc2c(c1)/C(=C\c1c(Cl)nc3sc(C)cn13)C(=O)N2`, the TGI was found to be 21 µM.
`O=C(/C=C/c1ccc2c(c1)OCO2)CC(=O)C(=O)c1c[nH]c2ccccc12` showed a TGI above 100 µM.
Take `O=c1[nH]c(=O)n(C2OC(CO)C(O)C2O)c2nc(-c3ccc(-c4ccccc4)cc3)cnc12` (stereo unspecified): the TGI was above 100 µM.
Still for that read-out and setting: in the case of `CC1=NN(c2cccc(Cl)c2)C2(SCC(=O)N2c2nc3ccccc3s2)/C1=C\c1ccccc1O` (stereo unspecified) it was above 100 µM.
For the compound `CCCCCCOc1ccc(C(=O)NOC)cc1`, the TGI was above 100 µM.
Same read-out and setting: in the case of `Cc1c(S(=O)(=O)c2ccccc2)c(N)n(CCN(C)C)c1C` it was above 100 µM; in that of `N=C(N)SCc1ccc2c(c1)Sc1ccccc1O2`, 14.2 µM.
On the same count and under the same terms, in the case of `CC(=O)Nc1nc(C#N)[nH]c1C#N` it was above 100 µM; in that of `CS(=O)c1ncc2c(n1)-c1ccccc1OC2` (stereo unspecified), above 100 µM; in that of `CCOC(=O)Cn1c(=O)c2nc(SC)sc2n(-c2ccccc2)c1=O`, above 100 µM.
The same measure, in the same setting: then `COc1ccc(-c2nc(SCC(=O)N/N=C/c3ccc(N(C)C)cc3)[nH]c2-c2ccc(OC)cc2)cc1`, with above 100 µM; and `CC1=C[C@@H]2Cc3nc4cc(Cl)ccc4c(N)c3[C@H](C1)C2`, with 4.9 µM; and `c1c[nH]c(-c2ccc(-c3ccc[nH]3)c3nsnc23)c1`, with above 100 µM.
`CS(=O)(=O)OCC(CCl)(CCl)CCl` showed a TGI above 100 µM.
On to `CSC(=S)N(C)C`, for which the TGI is above 100 µM.
The same measure, in the same setting: in the case of `CCN(CC)CCn1c(=O)c2cccnc2n2c3c(=O)n(C)c(=O)n(C)c3nc12` it was above 100 µM; in that of `O=c1[nH]c(Nc2nc3ccccc3[nH]2)nc(O)c1-c1ccccc1`, above 100 µM.
The same measure, in the same setting: then `CC1(C)C2CCC1(C)[C@H](n1c(=O)n([C@@H]3CC4CCC3(C)C4(C)C)c(=O)n([C@@H]3CC4CCC3(C)C4(C)C)c1=O)C2`, with above 100 µM.
On the same count and under the same terms, then `COC(=O)C1CCC(=O)N1C(c1ccc(OC)cc1)c1ccc2c(c1)OCO2` (stereo unspecified), with above 100 µM.
